Experimental data published in US12448383B2, “Compounds and methods for treatment of viral infections” (priority 2022, dated 2025).

Experiments:
[1] = CC50 MT4 cytotoxicity (Cell-Titer Glo); type: cell-based; details: human
Protocol: Cytotoxicity of the compounds was determined in uninfected cells using the cell viability reagent in a similar fashion as described before for other cell types (Cihlar et al., Antimicrob Agents Chemother. 2008, 52(2):655-65). HEp-2 (1.5×10^3 cells/well) and MT-4 (2×10^3 cells/well) cells were plated in 384-well plates and incubated with the appropriate medium containing 3-fold serially diluted compound ranging from 15 nM to 100,000 nM. Cells were cultured for 4-5 days at 37° C. Following the incubation, the cells were allowed to equilibrate to 25° C., and cell viability was determined by adding Cell-Titer Glo viability reagent. The mixture was incubated for 10 min, and the luminescence signal was quantified using an Envision plate reader. Untreated cell and cells treated at 2 μM puromycin (Sigma, St. Louis, MO) serve as 100% and 0% cell viability control, respectively. The percent of cell viability was calculated for each tested compound concentration relative to the 0% and 100% controls and the CCso value was determined by non-linear regression as a compound concentration reducing the cell viability by 50%.

[2] = system: SARS Coronavirus 2 recombinant with NanoLuc (SARS-CoV2-NLuc) in A549-hACE2 cells; test: organism not typed; type: cell-based; details: 48 h; read-out: SARS-CoV2 EC50
[3] = system: Respiratory syncytial virus recombinant with luciferase (RSV-Luc5) in HEp-2 cells; test: microbe, parasite or virus in culture; type: cell-based; details: human respiratory syncytial virus, HEp-2, 72 h, read-out: RSV Hep2 EC50
[4] = system: Respiratory syncytial virus recombinant with luciferase (RSV-Luc5) in Normal Human Bronchial Epithelial (NHBE) cells; test: microbe, parasite or virus in culture; type: cell-based; details: 72 h, read-out: RSV NHBE EC50
Plasma stability = type: in vitro ADME; parameters: unit not given here; details: 37° C., 2 μM substrate
Protocol: At 0.05, 0.5, 1, 2, 3 and 4 hr, […] aliquots of the reaction mixture were transferred to plates containing […] of IS/Q quenching solution. After quenching, the plates were centrifuged at 3000 g for 30 minutes, and 150 μL supernatant was diluted with 150 μL water. Aliquots ([…]) of the diluted supernatant were analyzed on a Thermo Q-Exactive mass spectrometer as described below.
Mobile phase A consisted of 0.1% (v/v) formic acid in water. Mobile phase B consisted of 0.1% (v/v) formic acid in acetonitrile. Elution of analytes was achieved by a series of linear gradients of acetonitrile in water containing 0.1°(v/v) formic acid. The mass spectrometer was calibrated on a weekly basis and mass tolerance of 5 ppm was used.

[5] = GI S9 stability - no PMSF; type: in vitro ADME; details: pH 7.4; human intestinal S9, PMSF-free; read-out: GIS9-HUMAN-NoPMSF T1/2
Protocol: Duplicate aliquots of test compound or positive control substrate (GS-7340) were added to S9 stock diluted with 100 mM phosphate buffered saline, pH 7.4, to obtain a protein concentration of 1.0 mg/mL. The S9 metabolic reactions were initiated by the addition of the substrates to the S9 reaction mixture to a final concentration of 2 μM. At 0, 10, 20, 30, 60 and 120 min, […] aliquots of the reaction mixture were transferred to plates containing […] of IS/Q solution. After quenching, the plates were centrifuged at 3000 g for 30 minutes, and 150 μL aliquots of each supernatant were diluted with 150 μL water. Aliquots ([…]) of the diluted supernatant were analyzed on a Thermo Q-Exactive mass spectrometer as described below. GI S9 Stability—No phenylmethylsulfonyl fluoride (PMSF): Similar to the procedure described above, test compounds were incubated at 2 μM with 1 mg/mL PMSF-free Intestinal S9 fractions. Samples are removed at 6 time points over the course of a 120 min experiment and the parent compound disappreance and reference compound A formation is determined by mass spectrometry.
Example K: Liquid Chromatography/Mass Spectroscopy Methods for S9 and Plasma Stability
Quantification of test compounds, Reference Compound A (S9 stability assay nucleoside metabolite), and controls was performed by analyte/internal standard peak area ratio (PAR) values measured on a Thermo Q-Exactive mass spectrometer coupled to a Dionex UltiMate 3000 HPLC with a Leap Technologies HTC PAL autosampler. The column used for analysis of test compounds and Reference Compound A was a Waters Acquity BEH C18 ([…] particle size, 2.1′50 mm). The column used for control (GS-7340) was a Thermo Hypersil GOLD ([…] particle size, 2.1′50 mm). Mobile phase A consisted of 0.1% (v/v) formic acid in water. Mobile phase B consisted of 0.1% (v/v) formic acid in acetonitrile. Elution of analytes was achieved by a series of linear gradients of acetonitrile in water containing 0.1°(v/v) formic acid. The mass spectrometer was calibrated on a weekly basis and mass tolerance of 5 ppm was used.

[6] = system: Caco-2 cells (clone C2BBe1); test: CACO-2 permeability; type: in vitro ADME; parameters: unit not given here; details: for DM Caco2 A to B: apical to basolateral, donor pH 6.5, receiver pH 7.4; for DM Caco2 B to A: basolateral to apical
Protocol: Pre-plated Caco-2 cells (clone C2BBel) were obtained from Sigma-Aldrich, Inc. (Atlanta, GA). Cell monolayers were grown to confluence on collagen-coated, microporous, polycarbonate membranes in 24-well transwell plates for 21 days. The permeability assay buffer in donor wells was Hanks' balanced salt solution (HBSS) containing 10 mM HEPES and 15 mM glucose at a pH of 6.5 containing 200 μM BNPP. The receiver wells used HBSS buffer containing 10 mM HEPES and 15 mM glucose at a pH of 7.4 and supplemented with 1°% BSA. After an initial equilibration with transport buffer, TEER values were read to test membrane integrity. The experiment was started by the addition of buffers containing test compounds, 200 μl and 1000 μl in the apical and basolateral chamber, respectively. At 0- and 2-hour post dose, 10 μL was sampled from donor compartment and was immediately diluted in 190 μL of 20% methanol. At 1 and 2 hours post dose, 100 μl of solution was taken from the receiver compartments and was immediately diluted in 100 μl of 20% methanol. Removed buffer was replaced with fresh buffer and a correction was applied to all calculations for the removed material. Each compound was tested in 2 separate replicate wells for each condition. All samples were then extracted with 400 μl 100% acetonitrile with internal standard to precipitate protein. Cells were dosed on the apical or basolateral side to determine forward (A to B) and reverse (B to A) permeability. To test for non-specific binding and compound instability, the total amount of drug was quantitated at the end of the experiment and compared to the material present in the original dosing solution as a percent recovery. […] Samples were analyzed by LC-MS/MS.

| Compound | CC50 [1] [µM] | EC50 [2] [µM] | EC50 [3] [µM] | EC50 [4] [µM] | STA Human Plasma 37 (Plasma stability) | half-life at 2 µM [5] [s] | DM Caco2 A to B [6] | DM Caco2 B to A [6] |
| --- | --- | --- | --- | --- | --- | --- | --- | --- |
| CC(C)COC(=O)OC[C@H]1O[C@@](C#N)(c2ccc3c(N)ncnn23)[C@@H]2OC(=O)O[C@@H]21 [Compound 17, ((3aR,4R,6R,6aR)-6-(4-aminopyrrolo[2,1-f][1,2,4]triazin-7-yl)-6-cyano-2-oxotetrahydrofuro[3,4-d][1,3]dioxol-4-yl)methyl isobutyl carbonate] | > 50 | 0.814 | 0.412 | 1.9 |  |  |  |  |
| CC(C)(C)COC(=O)OC[C@H]1O[C@@](C#N)(c2ccc3c(=N)n(COP(=O)(O)OCc4ccccc4)cnn23)[C@H](O)[C@@H]1O [Compound 18, ((2R,3S,4R,5R)-5-(3-((((benzyloxy)(hydroxy)phosphoryl)oxy)methyl)-4-imino-3,4-dihydropyrrolo[2,1-f][1,2,4]triazin-7-yl)-5-cyano-3,4-dihydroxytetrahydrofuran-2-yl)methyl neopentyl carbonate] | > 50 | 12.4 | 2.87 | 12.1 |  |  |  |  |
| N#C[C@@]1(c2ccc3c(N)ncnn23)O[C@H](COC(=O)OC2CNC2)[C@@H](O)[C@H]1O [Compound 20, ((2R,3S,4R,5R)-5-(4-aminopyrrolo[2,1-f][1,2,4]triazin-7-yl)-5-cyano-3,4-dihydroxytetrahydrofuran-2-yl)methyl azetidin-3-yl carbonate] | > 50 | 8.98 | 2.02 | 4.35 |  |  |  |  |
| Cc1oc(=O)oc1COC(=O)OC[C@H]1O[C@@](C#N)(c2ccc3c(N)ncnn23)[C@H](O)[C@@H]1O [Compound 26, ((2R,3S,4R,5R)-5-(4-aminopyrrolo[2,1-f][1,2,4]triazin-7-yl)-5-cyano-3,4-dihydroxytetrahydrofuran-2-yl)methyl ((5-methyl-2-oxo-1,3-dioxol-4-yl)methyl) carbonate] | > 50 | 2.39 | 0.942 | 0.844 | 33.7 | 29.2 | 0.07 | 0.36 |
| CCCCCOC(=O)OC[C@H]1O[C@@](C#N)(c2ccc3c(N)ncnn23)[C@H](O)[C@@H]1O [Compound 27, ((2R,3S,4R,5R)-5-(4-aminopyrrolo[2,1-f][1,2,4]triazin-7-yl)-5-cyano-3,4-dihydroxytetrahydrofuran-2-yl)methyl pentyl carbonate] | > 50 | 0.658 | 0.145 | 1.01 |  |  |  |  |
| N#C[C@@]1(c2ccc3c(N)ncnn23)O[C@H](COC(=O)OC2CC3(CCC3)C2)[C@@H](O)[C@H]1O [Compound 29, ((2R,3S,4R,5R)-5-(4-aminopyrrolo[2,1-f][1,2,4]triazin-7-yl)-5-cyano-3,4-dihydroxytetrahydrofuran-2-yl)methyl spiro[3.3]heptan-2-yl carbonate] | > 50 | 0.835 | 0.109 | 1.3 | 139 | 37 | 1.91 | 12.29 |
| N#C[C@@]1(c2ccc3c(N)ncnn23)O[C@H](COC(=O)OCC2CCCC2)[C@@H](O)[C@H]1O [Compound 85, ((2R,3S,4R,5R)-5-(4-aminopyrrolo[2,1-f][1,2,4]triazin-7-yl)-5-cyano-3,4-dihydroxytetrahydrofuran-2-yl)methyl (cyclopentylmethyl) carbonate] | > 50 | 0.417 | 0.166 | 0.776 | 38.6 | 37.3 |  |  |
| N#C[C@@]1(c2ccc3c(N)ncnn23)O[C@H](COC(=O)OCC2CCCCC2)[C@@H](O)[C@H]1O [Compound 86, ((2R,3S,4R,5R)-5-(4-aminopyrrolo[2,1-f][1,2,4]triazin-7-yl)-5-cyano-3,4-dihydroxytetrahydrofuran-2-yl)methyl (cyclohexylmethyl) carbonate] | > 50 | 0.623 | 0.371 | 1.22 | 48.6 | 41 |  |  |
| CC[C@@H](C)OC(=O)OC[C@H]1O[C@@](C#N)(c2ccc3c(N)ncnn23)[C@H](O)[C@@H]1O [Compound 89, ((2R,3S,4R,5R)-5-(4-aminopyrrolo[2,1-f][1,2,4]triazin-7-yl)-5-cyano-3,4-dihydroxytetrahydrofuran-2-yl)methyl ((R)-sec-butyl) carbonate] | > 50 | 2.69 | 0.665 | 0.978 | 188.5 | 35.4 |  |  |
| CC(C)OC(=O)OC[C@H]1O[C@@](C#N)(c2ccc3c(N)ncnn23)[C@@H]2OC(c3ccccc3)O[C@@H]21 (stereo partly drawn) [Compound 100, [(3aR,4R,6R,6aR)-4-(4-aminopyrrolo[2,1-f][1,2,4]triazin-7-yl)-4-cyano-2-phenyl-6,6a-dihydro-3aH-furo[3,4-d][1,3]dioxol-6-yl]methyl isopropyl carbonate] | > 50 |  | > 50 | 16 |  |  | 11.73 | 22.71 |
| C=CCCOC(=O)O[C@H]1[C@@H](OC(=O)OCCC=C)[C@](C#N)(c2ccc3c(N)ncnn23)O[C@@H]1COC(=O)OC(C)C [Compound 136, (2R,3R,4R,5R)-2-(4-aminopyrrolo[2,1-f][1,2,4]triazin-7-yl)-2-cyano-5-(((isopropoxycarbonyl)oxy)methyl)tetrahydrofuran-3,4-diyl di(but-3-en-1-yl) bis(carbonate)] | > 50 | 4.7 |  | 2.03 | 463.08 | 60.8 | 4.33 | 5.7 |
